In patent US7344730B1, “Soil granulates with controlled active ingredient release (cr soil granulates)” (BASF SE, priority 1998, dated 2008):
Like-named read-outs stand apart in the source and are kept apart here.

Tests used:
[1] = Granule elution apparatus: release of active ingredient from CR granules into about 4000 ml water in 24 h; assay type: physicochemical; conditions: for active ingredient detected in the collected liquid: Example 3 granules (PVA+PVP coating), 30 g of granules, 3980 g of water in 24 hours; for Release rate in 24 h at 40° C., 4000 ml: coating percentage 4%
Protocol: The plant serves to determine the delayed release of active ingredients or salts from controlled release (CR) formulations. A frit on which the granules to be tested are placed is located in a cylindrical vessel at the lower edge. Underneath the frit there is an S-shaped drain which causes liquid to drain from the cylinder only when it is 80% full. Water (if appropriate together with wetter) is pumped through the CR formulations in a cylindrical feed container (approx. volume 100 ml) by means of a hose pump in such a way that the feed material is surrounded completely by water. The percolating water is collected in receiving vessels. An automatic switch causes the receiving vessels to be changed in order to determine the release of active ingredients over time. […] Unless elution temperatures are specified, a bath temperature of 30° C. was set.
The elution plant operates 24 hours a day in conjunction with the program control. One elution takes 24 hours, and during this time approx. 4000 ml of fluid are pumped through the feed material and collected in receiving vessels. The active ingredient content in the eluate is determined by means of HPLC or GC. Whether release is uniform can be checked with reference to the feed material. The cumulative value provides a measure for assessing granule permeability.
The release rate of the active ingredients was determined in the above-described elution apparatus. To this end, 30 g of the carrier granules were weighed into a trapped container equipped with a frit. In 24 hours, an amount of 3980 g of water was pumped through the container and collected. 124 mg of fenpropimorph and 19 mg of epoxiconazole were detected in the collected liquid.

[2] = assay type: in vivo, winter wheat; conditions: for epoxiconazole detected per kg of biomass: winter wheat, in vivo
Protocol: This product was applied together with cereal seed (winter wheat). On average, approx. 3 fungicidal active ingredient pellets were deposited subterraneously per seed kernel. Epoxiconazole was detected in the growing cereal plants two and six months after application. Two months after sowing, 0.038 mg were detected per kg of biomass, and six months after application 0.022 mg were still detected per kg of biomass.

Erysiphe-graminis = test: Field experiments on spring wheat Star: disease level Erysiphe graminis; assay type: in vivo; conditions: soil application in CR granules combined with strobilurin, Table 12 series
Excerpt: Due to the rapid release of active ingredient, the long-term action of this sample was insufficient, so that only a minor effect was discernible in comparison with the untreated sample.
The carriers employed were urea and Rasenfloranid granules.

SMILES: CC(Cc1ccc(C(C)(C)C)cc1)CN1C[C@@H](C)O[C@@H](C)C1 (mixture of isomers) [Comp. 1, (±)-cis-4-[3-(4-tert-butylphenyl)-2-methylpropyl]-2,6-dimethyl-morpoline]
- active ingredient detected in the collected liquid [1]: 124 mg

SMILES: Fc1ccc([C@]2(Cn3cncn3)O[C@H]2c2ccccc2Cl)cc1 (racemic) [Comp. 6, (2RS,3SR)-1-[3-(2-chlorophenyl)-2,3-epoxy-2-(4-fluorophenyl)-propyl]-1H-1,2,4-triazole]
- active ingredient detected in the collected liquid [1]: 19 mg
- Release rate in 24 h at 40° C., 4000 ml ([1]; filler (starch C-Pur) 0%): 2.70%
- Release rate in 24 h at 40° C., 4000 ml ([1]; filler (starch C-Pur) 10%): 3.30%
- Release rate in 24 h at 40° C., 4000 ml ([1]; filler (starch C-Pur) 20%): 7.15%
- controlled release of the active ingredient in the soil, duration ([2]; PVA+PVP coating, Example 3): at least 6 months
- epoxiconazole detected per kg of biomass ([2]; 2 months): 0.038 mg per kg of biomass
- epoxiconazole detected per kg of biomass ([2]; 6 months): 0.022 mg per kg of biomass

SMILES: CC(=O)Oc1ccccc1C(=O)O [Comp. 7, acetylsalicylic acid]
- activity-enhancing effect in combination (words) (Erysiphe-graminis; listed as Compound 7): same activity-enhancing effects as Bion®

SMILES: CC(=O)Oc1ccccc1C(=O)O [acetylsalicylic acid]
- activity-enhancing effect in combination (words) (Erysiphe-graminis): activity-enhancing effects
